# Assay results published in the pKa sets of Baltruschat and Czodrowski (2020).
# Details: acidic group
row,Compound,pKa
1,CC(C)(C)c1ccc(-c2c(O)c2=O)cc1,2.21
2,O=P(O)(C1CCCCC1)C1CCCCC1,3.47
3,O=P1(O)CCCCC1,2.73

# Same assay, conditions: basic group
row,Compound,pKa
1,Cc1ccc2cccnc2c1,5.25
2,CCC(=O)SCCN(C)C,8.28
3,c1ccc2cc(NCCNc3ccc4ccccc4c3)ccc2c1,3.7
4,C[n+]1ccc(N)nc1[O-],4.52
5,CCCN(CCO)CC(O)CC (stereo not drawn),9
6,NNc1nncc2ccccc12,7.25
7,CN(C)CCBr,7.55
8,O=P([O-])(O)C([NH2+]Cc1ccccn1)c1ccccc1O (stereo not drawn),3.12
9,Cc1ncc2nc(C)c(C)nc2n1,3.76
10,c1nc2c(ccc3c4c(cnc32)CCCC4)c2c1CCCC2,6.23
11,CNc1cccc(C)c1,4.94
12,Cc1cccc(N)c1-c1c(C)cccc1N,3.7
13,C=C(C)C(=O)OC(C)CN(CC)CC (stereo not drawn),8.65
14,NCC(O)c1ccc(Cl)cc1 (stereo not drawn),9.04
15,CCN(CC)N(CC)CC,7.31
16,CN(C)C1CC(C)(C)[NH2+]C(C)(C)C1,7.67
17,Oc1ccc2cnccc2c1,5.85
18,CC(=O)Oc1cccc2cccnc12,3.3
19,CCCCCCCCCCCCCCCCN,10.6
20,O=C(Cc1ccccc1Nc1c(Cl)cccc1Cl)OCCCCN1CCOCC1,8.4
21,NCCCCOc1c2ccccc2cc2ccccc12,9.94
22,CCCCCCCCCCCN,10.6

row,Compound,pKa
1,COCCN(C)C,8.96
2,Cc1cc2nc[nH]c2cc1C,6.04
3,N[C@@H]1CCC[C@H](O)C1,10.1
4,CN[C@H]1C[C@@H]1NC,8.73
5,c1ccc2scnc2c1,1.38
6,CC(=O)Nc1c(C)n(C)n(-c2ccccc2)c1=O,0.18
7,Cc1cc(-c2ccccc2)nn(C)/c1=N/CCN1CCOCC1,10.4
8,O=C(CCN1CCOCC1)c1cccc([N+](=O)[O-])c1,6.5
9,Cc1cc([O-])nc(-n2nc(C)cc2O)n1,10
10,CN(C)c1cccc([N+](=O)[O-])c1,2.58
11,CCN(CC)CCC(C)=O,9.25
12,Cc1cc(N)c2ccccc2n1,9.44
13,CNCC(=O)[O-],10.1
14,N=C1CCCC1,8.95
15,OC1C=CC=CC=C1,-7
16,Cc1cccc(C(=O)[O-])n1,5.8
17,CC1=Nc2ccccc2CO1,4.64
18,Cn1ncc2c(NCc3ccco3)ncnc21,3.8
19,Nc1cccc([NH3+])c1,2.46
20,Nc1ccc2nc3cc(N)ccc3cc2c1,8.11
21,CN1CCCC1c1cncc2[nH]c3ccccc3c12 (stereo not drawn),8.02
22,O=C([O-])CN=C1CCCC1,8.72

row,Compound,pKa
1,Nc1nncc2ccccc12,6.6
2,NCCNCCc1ccccc1,9.44
3,CCC(=O)C(CCN(C)C)(c1ccccc1)c1ccccc1,9.23
4,CCOCCNc1ccc(OC)cc1,4.99
5,COc1ccc2nc3ccccc3cc2c1,3.82
6,Nc1ccnc2c1ncn2CCOCP(=O)([O-])O,5.52
7,CCNc1nc(Cl)nc(NC(C)C)n1,1.61
8,CCCCCCCCCCCCN(CC(C)O)CC(C)O (stereo not drawn),7.8
9,C1CCC(N2CCCC2)CC1,10.7
10,Cc1ccnc(NS(=O)(=O)c2ccccc2)n1,0.59
11,Nc1ncnc2c1ncn2C1CCCCC1,4.19
12,[NH3+]CCCc1cccnc1,5.19
13,CC(=O)NNC1CCN(C)CC1,8.7
14,COc1cccc(C(=O)CCN2CCOCC2)c1,7.1
15,Nc1cc[nH+]c([O-])n1,4.61
16,Cc1ccccc1-n1nnnc1N,1.23
17,Nc1ccc2c(c1)-c1ccccc1C2,4.68
18,CNC(C)Cc1ccc(OC)c(OC)c1 (stereo not drawn),9.8
19,Cc1cc(CO)c(C)c(C)n1,7.3
20,c1cc(N2CCOCC2)ccc1N1CCOCC1,4.2
21,CC(C)(C)NNC(C)(C)C,8.31
22,CCOC(=O)C1(c2ccccc2)CCN(C)CC1,8.6

row,Compound,pKa
1,Nc1ccc(O)cc1,5.54
2,NC(=O)C(N)Cc1c[nH]c2ccccc12 (stereo not drawn),7.55
3,CC(C)([Se-])CN,10.9
4,O=C([O-])c1ccc2ccccc2n1,4.97
5,CC(O)C[NH+](CCCN1CCOCC1)CC(C)O (stereo not drawn),5.5
6,COc1cccc(C(=O)N[C@H]2C[C@H]3CC[C@@H](C2)N3Cc2ccccc2)c1OC,8.91
7,C(=N\c1ccccc1)/Nc1ccccc1,6.3
8,C#CCCCN,10.2
9,CC(=O)NCCN,9.28
10,COc1ccccc1N,4.51
11,CCCCN1CCCC1C (stereo not drawn),10.7
12,O=C(CCN1CCOCC1)c1ccccc1,6.5
13,Nc1ccc(S(=O)(=O)Nc2cncnc2)cc1,1.9
14,C=C[C@]1(O)C[C@@H](C)N[C@@H]2CCCC[C@H]21,9.98
15,Nc1ccc(CC(=O)[O-])cc1,5.2
16,CN1C=C(C#N)CCC1,2.7
17,CN1[C@@H]2CC[C@H]1[C@H](C(=O)[O-])[C@@H](O)C2,9.7
18,Nc1ccc2cc3cc(Cl)ccc3nc2c1,6.95
19,C[C@@H]1[C@@H](N)[C@H]1N,8.98
